Source: patent US7196080B2, “Phenylpyridinecarbonylpiperazinederivative” (Astellas Pharma Inc., priority 2001, dated 2007)

Key:
[1] = molecular target: PDE5 (Homo sapiens, UniProt O76074); assay: PDE5 inhibitory activity; assay type: biochemical; settings: in the same concentration (as the PDE4 IC50, 12 nM or less)
Experimental: (§1) A concentration of test compound which inhibits 50% of the metabolic activity of PDE4 was defined as IC50 and calculated for each compound. By applying the above test method and the method described in WO 97/19078, inhibitory activity against PDE1, PDE2, PDE3 and PDE5 was measured similarly.

[2] = tested on: PDE1; assay: PDE1 inhibitory activity; assay type: biochemical; settings: in the same concentration (as the PDE4 IC50, 12 nM or less)
Experimental: as §1

[3] = molecular target: PDE2 (Homo sapiens, UniProt O00408); assay: PDE2 inhibitory activity; assay type: biochemical; settings: in the same concentration (as the PDE4 IC50, 12 nM or less)
Experimental: as §1

[4] = tested on: PDE3; assay: PDE3 inhibitory activity; assay type: biochemical; settings: in the same concentration (as the PDE4 IC50, 12 nM or less)
Experimental: as §1

Chain of PDE2 (O00408 whole entry): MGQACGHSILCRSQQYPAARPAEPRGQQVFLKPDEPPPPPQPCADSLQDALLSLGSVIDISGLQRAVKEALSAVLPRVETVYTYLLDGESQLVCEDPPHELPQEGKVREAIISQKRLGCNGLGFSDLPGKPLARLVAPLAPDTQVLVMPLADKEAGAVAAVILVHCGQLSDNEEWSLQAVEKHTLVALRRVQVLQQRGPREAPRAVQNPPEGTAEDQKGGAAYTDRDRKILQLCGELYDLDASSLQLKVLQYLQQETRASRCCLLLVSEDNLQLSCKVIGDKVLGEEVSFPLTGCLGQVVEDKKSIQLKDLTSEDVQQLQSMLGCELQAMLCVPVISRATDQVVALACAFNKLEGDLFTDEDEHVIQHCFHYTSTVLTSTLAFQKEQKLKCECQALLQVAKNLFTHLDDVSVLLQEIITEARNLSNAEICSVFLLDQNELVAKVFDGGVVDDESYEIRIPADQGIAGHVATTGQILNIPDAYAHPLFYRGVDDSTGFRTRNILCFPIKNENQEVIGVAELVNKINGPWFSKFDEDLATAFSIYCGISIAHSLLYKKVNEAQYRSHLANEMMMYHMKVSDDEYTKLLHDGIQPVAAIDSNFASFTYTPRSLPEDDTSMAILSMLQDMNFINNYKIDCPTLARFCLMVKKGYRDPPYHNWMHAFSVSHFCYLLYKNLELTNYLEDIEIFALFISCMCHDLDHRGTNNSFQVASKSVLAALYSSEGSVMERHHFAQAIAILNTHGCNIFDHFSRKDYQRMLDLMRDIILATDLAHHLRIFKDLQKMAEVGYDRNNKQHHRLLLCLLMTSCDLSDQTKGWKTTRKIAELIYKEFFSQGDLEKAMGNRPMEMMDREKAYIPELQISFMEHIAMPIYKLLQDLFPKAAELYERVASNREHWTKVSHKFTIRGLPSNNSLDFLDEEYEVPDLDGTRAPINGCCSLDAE

Row | inhibitory activity against PDE5 [1] | inhibitory activity against PDE2 [3] | melting point [°C] | Compound | inhibitory activity against PDE1 [2] | inhibitory activity against PDE3 [4]
1 | – | – | 142 to 144 | COc1ccc(-c2cccc(C(=O)N3CCN(c4ccc(C(C)=O)cc4)CC3)n2)cc1OCC1CC1 (hydrate or solvate) [Example 112, 1-(4-{4-[6-(3-cyclopropylmethoxy-4-methoxyphenyl)pyridine-2-carbonyl]piperazin-1-yl}phenyl)ethanone] | – | –
2 | hardly exhibited inhibitory activity | hardly exhibited inhibitory activity | 169 to 172 | COc1ccc(N2CCN(C(=O)c3cccc(-c4ccc(OC)c(OC)c4)n3)CC2)cc1 [Example 2, 1-[6-(3,4-dimethoxyphenyl)pyridine-2-carbonyl]-4-(4-methoxyphenyl)piperazine] | hardly exhibited inhibitory activity | hardly exhibited inhibitory activity
3 | – | – | 164 to 165 | COc1ccc(-c2cccc(C(=O)N3CCN(c4ccc(N)cc4)CC3)n2)cc1OC [Example 9, 1-[6-(3,4-dimethoxyphenyl)pyridine-2-carbonyl]-4-(4-aminophenyl) piperazine] | – | –
4 | hardly exhibited inhibitory activity | hardly exhibited inhibitory activity | 182 to 183 | COc1ccc(-c2cccc(C(=O)N3CCN(c4ccc(OCc5cc[n+]([O-])cc5)cc4)CC3)n2)cc1OC [Example 10, 1-[6-(3,4-dimethoxyphenyl)pyridine-2-carbonyl]-4-[4-(1-oxido-4-pyridylmethoxy)phenyl]piperazine] | hardly exhibited inhibitory activity | hardly exhibited inhibitory activity
5 | – | – | 237 to 240 | COc1ccc(-c2cccc(C(=O)N3CCN(c4ccc(C(N)=O)cc4)CC3)n2)cc1OC [Example 12, 4-{4-[6-(3,4-dimethoxyphenyl)pyridine-2-carbonyl]piperazin-1-yl}benzamide] | – | –
6 | hardly exhibited inhibitory activity | hardly exhibited inhibitory activity | 129 to 130 | COc1ccc(-c2cccc(C(=O)N3CCN(c4ccc(N5CCOCC5)cc4)CC3)n2)cc1OC [Example 15, 4-(4-{4-[6-(3,4-dimethoxyphenyl)pyridine-2-carbonyl]piperazin-1-yl)phenyl)morpholine] | hardly exhibited inhibitory activity | hardly exhibited inhibitory activity
7 | – | – | 168 to 170 | COc1ccc(-c2cccc(C(=O)N3CCN(c4ccc(NS(C)(=O)=O)cc4)CC3)n2)cc1OC [Example 16, 4′-{4-[6-(3,4-dimethoxyphenyl)pyridine-2-carbonyl]piperazin-1-yl}methanesulfonanilide] | – | –
8 | hardly exhibited inhibitory activity | hardly exhibited inhibitory activity | 161 to 163 | COc1ccc(-c2cccc(C(=O)N3CCN(c4ccc(C(C)=O)cc4)CC3)n2)cc1OC [Example 32] | hardly exhibited inhibitory activity | hardly exhibited inhibitory activity
9 | hardly exhibited inhibitory activity | hardly exhibited inhibitory activity | 201 to 203 | COc1ccc(-c2cccc(C(=O)N3CCN(c4ccc(NC(C)=O)cc4)CC3)n2)cc1OC [Example 43, 4′-{4-[6-(3,4-dimethoxyphenyl)pyridine-2-carbonyl]piperazin-1-yl}acetanilide] | hardly exhibited inhibitory activity | hardly exhibited inhibitory activity
10 | hardly exhibited inhibitory activity | hardly exhibited inhibitory activity | 131 to 134 | CCN(CC)CCC(=O)Nc1ccc(N2CCN(C(=O)c3cccc(-c4ccc(OC)c(OC)c4)n3)CC2)cc1 [Example 45, 3-diethylamino-4′-{4-[6-(3,4-dimethoxyphenyl)pyridine-2-carbonyl]piperazin-1-yl}propananilide] | hardly exhibited inhibitory activity | hardly exhibited inhibitory activity
11 | hardly exhibited inhibitory activity | hardly exhibited inhibitory activity | 144 to 145 | COc1ccc(-c2cccc(C(=O)N3CCN(c4cccc(Br)n4)CC3)n2)cc1OC [Example 77, 1-(6-bromo-2-pyridyl)-4-[6-(3,4-dimethoxyphenyl)pyridine-2-carbonyl]piperazine] | hardly exhibited inhibitory activity | hardly exhibited inhibitory activity
12 | hardly exhibited inhibitory activity | hardly exhibited inhibitory activity | 143 to 144 | COc1ccc(-c2cccc(C(=O)N3CCN(c4ccc(OCCN5CCC(O)CC5)cc4)CC3)n2)cc1OC [Example 95, 1-[2-(4-{4-[6-(3,4-dimethoxyphenyl)pyridine-2-carbonyl]piperazin-1-yl}phenoxy)ethyl]piperidin-4-ol] | hardly exhibited inhibitory activity | hardly exhibited inhibitory activity
13 | hardly exhibited inhibitory activity | hardly exhibited inhibitory activity | – | COc1ccc(-c2cccc(C(=O)N3CCN(c4ccc(C(C)=O)cc4)CC3)n2)cc1OCC1CC1 [Example 112, 1-(4-{4-[6-(3-cyclopropylmethoxy-4-methoxyphenyl)pyridine-2-carbonyl]piperazin-1-yl}phenyl)ethanone] | hardly exhibited inhibitory activity | hardly exhibited inhibitory activity
14 | – | – | 168 to 170 | COc1ccc(-c2cccc(C(=O)N3CCN(c4ccc(C(C)=O)cc4)CC3)n2)cc1Cl [Example 113] | – | –
15 | – | – | 160 to 162 | COc1ccc(-c2cccc(C(=O)N3CCN(c4ccc(C(C)=O)cc4)CC3)n2)cc1OC(F)F [Example 114] | – | –
16 | – | – | 168 to 170 | COc1ccc(-c2cccc(C(=O)N3CCN(c4ccc(C(C)=O)cc4)CC3)n2)cc1F [Example 115] | – | –

Row | Compound | inhibitory activity against PDE5 [1] | inhibitory activity against PDE2 [3] | melting point [°C] | inhibitory activity against PDE1 [2] | inhibitory activity against PDE3 [4]
17 | 4-{2-[(6-{4-]6-(3,4-dimethoxyphenyl)pyridine-2-carbonyl)piperazin-1-yl}-3-pyridyl}oxylethyl)morpholine [Example 99] | hardly exhibited inhibitory activity | hardly exhibited inhibitory activity | – | hardly exhibited inhibitory activity | hardly exhibited inhibitory activity
